Laboratory results as given in patent US20230120211A1, “HDAC Degrader” (University of Leicester, priority 2020, published 2023).

What was measured:
HDAC1 = target: T1, HDAC1 (Homo sapiens, UniProt Q13547); test: HDAC1 degradation in HCT116 cells, quantitative western blot; format: cell-based; conditions: for Dmax: HCT-116, 24 h, HCT116, screened at 0.1, 1 and 10 μM, maximum degradation irrespective of concentration, read-out: HDAC1 Degrader (% Degradation)
T1 construct: endogenous in cells; host or cells: HCT116
T1 sequence (Q13547 whole entry): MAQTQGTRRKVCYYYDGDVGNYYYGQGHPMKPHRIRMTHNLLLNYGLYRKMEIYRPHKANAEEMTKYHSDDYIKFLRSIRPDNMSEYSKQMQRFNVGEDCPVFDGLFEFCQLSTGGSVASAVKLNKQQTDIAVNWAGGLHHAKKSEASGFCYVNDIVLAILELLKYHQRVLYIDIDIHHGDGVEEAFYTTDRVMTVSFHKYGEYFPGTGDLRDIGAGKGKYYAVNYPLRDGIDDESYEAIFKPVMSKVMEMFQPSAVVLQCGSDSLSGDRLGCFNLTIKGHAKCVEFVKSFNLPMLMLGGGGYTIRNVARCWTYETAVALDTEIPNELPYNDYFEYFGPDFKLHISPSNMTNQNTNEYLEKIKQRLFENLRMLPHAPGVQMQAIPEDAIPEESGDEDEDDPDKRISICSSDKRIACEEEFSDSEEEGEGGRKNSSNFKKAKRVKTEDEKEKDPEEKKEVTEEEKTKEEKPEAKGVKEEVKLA
Method: (§1) The compounds were screened at 0.1 μM, 1 μM and 10 μM in a HCT116 cell line. The maximum degradation observed irrespective of the concertation was recorded. The screening of the new compounds was done in 6-well plates, 5 mL media, with 400,000 cells per well to increase throughput.
(§2) HCT116 or mES cells were treated 24 hours after seeding. 24 hours post treatment, cells were harvested, lysed in lysis buffer (50 mM Tris-HCl, 150 mM NaCl, 0.5% NP-40, 0.5% Triton X-100) with protease inhibitor (Sigma, P8340), then incubated on ice for 30 minutes, before being centrifuged (18,000 ref, 15 minutes, 4° C.). The supernatant was collected, and protein concentrations quantified via Bradford Assay using Protein Assay Dye Reagent Concentrate (BIO-RAD). For histone extraction, an equal volume of 0.4 N H2SO4 was added to the pellets and the extracts placed at 4° C. overnight. Following overnight incubation, the tubes were centrifuged (18,000 ref, 15 minutes, 4° C.) and then the supernatant (histone extract) collected.
(§3) PageRuler™ Plus Prestained Ladder was used for size standards. After gel electrophoresis at 140V for 75-90 minutes the separated proteins were transferred onto nitrocellulose membrane at 30V for 60 minutes. The membranes were probed with primary antibodies (listed below) for 60-90 minutes. Blots were developed with complimentary IRDye conjugated secondary antibodies and the bands visualised using the Odyssey Infrared Imaging System. Image processing and band intensity quantification was performed using Image Studio Lite.

HDAC2 = target: T2, HDAC2 (Homo sapiens, UniProt Q92769); test: HDAC2 degradation in HCT116 cells, quantitative western blot; format: cell-based; conditions: for Dmax: HCT-116, 24 h, read-out: HDAC 2 Degrader (% Degradation); for Dmax / HDAC 2 Degrader (% Degradation): HCT116, screened at 0.1, 1 and 10 μM, maximum degradation irrespective of concentration
T2 construct: endogenous in cells; host or cells: HCT116
T2 sequence (Q92769 whole entry): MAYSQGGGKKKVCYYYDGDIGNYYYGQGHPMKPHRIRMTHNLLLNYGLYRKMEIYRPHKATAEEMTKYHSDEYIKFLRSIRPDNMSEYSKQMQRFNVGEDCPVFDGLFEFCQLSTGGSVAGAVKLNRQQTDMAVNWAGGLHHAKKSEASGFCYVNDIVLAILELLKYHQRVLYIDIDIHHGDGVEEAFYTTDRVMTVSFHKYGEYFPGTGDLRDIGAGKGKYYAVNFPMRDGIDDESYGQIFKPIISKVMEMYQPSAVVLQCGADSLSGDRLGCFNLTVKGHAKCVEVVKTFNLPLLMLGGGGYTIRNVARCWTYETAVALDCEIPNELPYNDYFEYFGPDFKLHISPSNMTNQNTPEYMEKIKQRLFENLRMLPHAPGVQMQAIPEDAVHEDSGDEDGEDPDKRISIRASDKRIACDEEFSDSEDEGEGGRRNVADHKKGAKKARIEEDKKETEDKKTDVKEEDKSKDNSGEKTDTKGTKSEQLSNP
Method: as §1, §2, §3

HDAC3 = target: T3, HDAC3 (Homo sapiens, UniProt O15379); test: HDAC3 degradation in HCT116 cells, quantitative western blot; format: cell-based; conditions: HCT-116, 24 h; HCT116, screened at 0.1, 1 and 10 μM; maximum degradation irrespective of concentration; read-out: HDAC 3 degrader (% Degradation)
T3 construct: endogenous in cells; host or cells: HCT116
T3 sequence (O15379 whole entry): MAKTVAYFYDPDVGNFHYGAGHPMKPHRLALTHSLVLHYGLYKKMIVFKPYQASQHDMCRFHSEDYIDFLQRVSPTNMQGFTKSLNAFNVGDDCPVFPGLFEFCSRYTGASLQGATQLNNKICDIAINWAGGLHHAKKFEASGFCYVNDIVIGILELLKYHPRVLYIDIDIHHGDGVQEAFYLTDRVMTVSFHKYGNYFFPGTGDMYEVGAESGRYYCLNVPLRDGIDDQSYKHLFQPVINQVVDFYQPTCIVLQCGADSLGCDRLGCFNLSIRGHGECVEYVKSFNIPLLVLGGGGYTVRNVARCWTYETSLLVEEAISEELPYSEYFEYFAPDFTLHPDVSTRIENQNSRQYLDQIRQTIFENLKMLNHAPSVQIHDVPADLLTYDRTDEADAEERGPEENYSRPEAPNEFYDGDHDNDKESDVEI
Method: as §1, §2, §3

CoREST = CoREST (Homo sapiens, UniProt Q13547); test: HDAC inhibition assay, CoREST complex (Table 1, run under different conditions); format: biochemical; conditions: Table 1 conditions (differ from FIG. 3)
CoREST, sequence (Q13547 whole entry, other chains not shown): as the sequence (Q13547 whole entry) above
CoREST, sequence (Q9UKL0 86-485 partner limits assumed, other chains not shown): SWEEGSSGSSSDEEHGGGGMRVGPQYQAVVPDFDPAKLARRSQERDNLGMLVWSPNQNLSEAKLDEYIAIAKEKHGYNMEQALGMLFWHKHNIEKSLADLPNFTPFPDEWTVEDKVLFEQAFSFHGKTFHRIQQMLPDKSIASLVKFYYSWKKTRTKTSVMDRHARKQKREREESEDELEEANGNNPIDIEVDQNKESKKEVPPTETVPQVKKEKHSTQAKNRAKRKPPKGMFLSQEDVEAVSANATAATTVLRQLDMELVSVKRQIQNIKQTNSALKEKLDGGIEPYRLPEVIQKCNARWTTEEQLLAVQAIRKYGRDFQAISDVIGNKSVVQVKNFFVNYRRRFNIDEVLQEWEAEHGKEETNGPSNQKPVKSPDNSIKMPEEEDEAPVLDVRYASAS
Method: Inhibition tests against LSD1-HDAC-CoREST complex were performed using a two-enzyme fluorescence-based HDAC assay. The inhibitor/PROTACs were dissolved at 50 mM in DMSO, then 1:2 serial dilutions performed using HDAC assay buffer (50 mM Tris pH 7.5, 150 mM NaCl) to afford range of concentrations.
The assays were performed in black 96-well plates with a reaction volume of 50 μL per well. All determinations were performed in triplicate. […] After an incubation of 20 minutes at 37° C. and 150 rpm, deacetylation was stopped by the addition of 50 μL of a developing solution containing trypsin (50 mM Tris pH 7.5, 100 mM NaCl, 10 mg/mL trypsin). […] HDAC Activity was calculated by subtracting the average blank fluorescence from the well fluorescence. Graphpad Prism software was utilised to determine IC50 values.

NuRD = NuRD (Homo sapiens, UniProt Q13547); test: HDAC inhibition assay, NuRD complex (Table 1); format: biochemical
NuRD, sequence (Q13547 whole entry): as the sequence (Q13547 whole entry) above
NuRD, sequence (Q13330 162-546 partner limits assumed): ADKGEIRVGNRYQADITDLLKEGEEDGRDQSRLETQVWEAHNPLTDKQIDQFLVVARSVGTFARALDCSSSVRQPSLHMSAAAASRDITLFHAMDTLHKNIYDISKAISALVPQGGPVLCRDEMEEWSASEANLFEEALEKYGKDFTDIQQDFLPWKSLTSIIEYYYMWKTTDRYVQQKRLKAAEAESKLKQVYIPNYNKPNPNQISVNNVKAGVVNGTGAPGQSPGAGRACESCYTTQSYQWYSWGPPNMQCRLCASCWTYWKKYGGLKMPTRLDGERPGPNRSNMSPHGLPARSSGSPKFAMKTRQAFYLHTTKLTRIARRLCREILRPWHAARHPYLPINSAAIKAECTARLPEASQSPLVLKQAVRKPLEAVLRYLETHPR
NuRD, sequence (Q09028 whole entry partner): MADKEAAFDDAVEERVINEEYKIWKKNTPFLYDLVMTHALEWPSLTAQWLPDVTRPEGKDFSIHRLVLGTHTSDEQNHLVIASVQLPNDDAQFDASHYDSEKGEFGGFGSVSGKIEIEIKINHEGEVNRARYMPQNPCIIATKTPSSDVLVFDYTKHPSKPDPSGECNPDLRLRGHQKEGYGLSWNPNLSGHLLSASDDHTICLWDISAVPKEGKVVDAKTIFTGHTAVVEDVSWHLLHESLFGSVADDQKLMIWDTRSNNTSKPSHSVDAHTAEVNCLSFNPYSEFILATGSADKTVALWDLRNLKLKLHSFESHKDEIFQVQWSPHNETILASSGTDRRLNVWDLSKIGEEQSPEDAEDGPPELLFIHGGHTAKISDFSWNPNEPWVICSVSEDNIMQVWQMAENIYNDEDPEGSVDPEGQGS

MiDAC = MiDAC (Homo sapiens, UniProt Q13547); test: HDAC inhibition assay, MiDAC complex (Table 1); format: biochemical
MiDAC, sequence (Q13547 whole entry): as the sequence (Q13547 whole entry) above
MiDAC, sequence (Q6PJG2 628-887 partner limits assumed): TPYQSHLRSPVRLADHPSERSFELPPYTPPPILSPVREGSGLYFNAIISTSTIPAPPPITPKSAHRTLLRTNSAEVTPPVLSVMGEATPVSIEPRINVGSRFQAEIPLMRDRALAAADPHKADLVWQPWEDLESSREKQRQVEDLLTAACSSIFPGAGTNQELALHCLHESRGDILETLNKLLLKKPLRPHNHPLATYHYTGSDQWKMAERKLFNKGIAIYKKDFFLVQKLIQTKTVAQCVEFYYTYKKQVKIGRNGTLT
MiDAC, sequence (Q9H147 whole entry partner): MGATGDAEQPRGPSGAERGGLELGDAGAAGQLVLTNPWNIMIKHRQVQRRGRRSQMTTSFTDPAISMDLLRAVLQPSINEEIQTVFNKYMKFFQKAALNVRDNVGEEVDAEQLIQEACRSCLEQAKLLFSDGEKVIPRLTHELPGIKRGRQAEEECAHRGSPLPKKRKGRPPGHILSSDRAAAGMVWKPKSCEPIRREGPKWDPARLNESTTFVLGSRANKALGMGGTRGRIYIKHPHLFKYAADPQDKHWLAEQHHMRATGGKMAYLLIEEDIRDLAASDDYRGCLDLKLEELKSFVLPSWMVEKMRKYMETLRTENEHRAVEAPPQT

H3K56ac = H3K56ac levels in E14 mouse embryonic stem cells, quantitative western blot; format: cell-based; conditions: E14 mES cells, 24 h; CI-994 40 μM, Panobinostat 30 nM
Method: The inventors proceeded to assess their compounds effects on HDAC activity in cells.
To examine the ability of PROTACs 1-4 to reduce HDAC1, 2 and 3 activity in cells they began by measuring H3K56ac using quantitative western blotting (see FIG. 3B).
as §2
as §3, with “Western blots were run on NuPAGE™ 4-12% Bis-Tris gels with 20-30 μg of protein or 10 μL of acid-extracted histone loaded per lane, using NuPAGE™ LDS Sample Buffer (4×). PageRuler™” for “PageRuler™”

[1] = HCT116, side by side with PROTAC 4, FIG. 4C

Row | Dmax (HDAC1) | Dmax (HDAC2) | Dmax (HDAC3) | SMILES | other results
1 | 51% | 28% | 69% | Cc1ncsc1-c1ccc(CNC(=O)[C@@H]2C[C@@H](O)CN2C(=O)[C@@H](NC(=O)C2(F)CC2)C(C)(C)C)c(OCCCCCCCCCCCC(=O)Nc2ccc(C(=O)Nc3ccccc3N)cc2)c1 [PROTAC36, (2S,4R)-N-(2-((12-((4-((2-aminophenyl)carbamoyl)phenyl)amino)-12-oxododecyl)oxy)-4-(4-methylthiazol-5-yl)benzyl)-1-((S)-2-(1-fluorocyclopropane-1-carboxamido)-3,3-dimethylbutanoyl)-4-hydroxypyrrolidine-2-carboxamide] | –
2 | 67% | 58% | 67% | Cc1ncsc1-c1ccc(CNC(=O)[C@@H]2C[C@@H](O)CN2C(=O)[C@@H](NC(=O)COCCCCCCCCCOCC(=O)Nc2ccc(C(=O)Nc3ccccc3N)cc2)C(C)(C)C)cc1 [PROTAC16, (2S,4R)-1-((S)-2-(2-((9-(2-((4-((2-aminophenyl)carbamoyl)phenyl)amino)-2-oxoethoxy)nonyl)oxy)acetamido)-3,3-dimethylbutanoyl)-4-hydroxy-N-(4-(4-methylthiazol-5-yl)benzyl)pyrrolidine-2-carboxamide] | IC50 (CoREST): 4.13 µM; IC50 (NuRD): 11.8 µM
3 | 47% | 44% | 30% | Cc1ncsc1-c1ccc(CNC(=O)[C@@H]2C[C@@H](O)CN2C(=O)[C@@H](NC(=O)CCCCCCCCCCCCC(=O)Nc2ccc(C(=O)Nc3ccccc3N)cc2)C(C)(C)C)cc1 [PROTAC34, N1-(4-((2-aminophenyl)carbamoyl)phenyl)-N14-((S)-1-((2S,4R)-4-hydroxy-2-((4-(4-methylthiazol-5-yl)benzyl)carbamoyl)pyrrolidin-1-yl)-3,3-dimethyl-1-oxobutan-2-yl)tetradecanediamide] | –
4 | – | – | – | Cc1ncsc1-c1ccc(CNC(=O)[C@@H]2C[C@H](O)CN2C(=O)[C@@H](NC(=O)CCCCCCCCCCC(=O)Nc2ccc(C(=O)Nc3ccccc3N)cc2)C(C)(C)C)cc1 [NC-PROTAC4, N1-(4-((2-aminophenyl)carbamoyl)phenyl)-N12-((S)-1-((2S,4S)-4-hydroxy-2-((4-(4-methylthiazol-5-yl)benzyl)carbamoyl)pyrrolidin-1-yl)-3,3-dimethyl-1-oxobutan-2-yl)dodecanediamide] | HDAC1 degradation (HDAC1; [1]): No degradation; HDAC2 degradation (HDAC2; [1]): No degradation
5 | 60% | – | – | Cc1ncsc1-c1ccc(CNC(=O)[C@@H]2C[C@@H](O)CN2C(=O)[C@@H](NC(=O)CCCCCCCC(=O)Nc2ccc(C(=O)Nc3ccccc3N)cc2)C(C)(C)C)cc1 [PROTAC6, N1-(4-((2-aminophenyl)carbamoyl)phenyl)-N9-((S)-1-((2S,4R)-4-hydroxy-2-((4-(4-methylthiazol-5-yl)benzyl)carbamoyl)pyrrolidin-1-yl)-3,3-dimethyl-1-oxobutan-2-yl)nonanediamide] | IC50 (MiDAC): 1.69 µM; HDAC 2 Degrader (% Degradation) (HDAC2): partial; IC50 (CoREST): 0.244 µM; IC50 (NuRD): 0.338 µM
6 | – | – | – | CC(=O)Nc1ccc(C(=O)Nc2ccccc2N)cc1 [CI-994, 4-acetamido-N-(2-aminophenyl)benzamide, reference compound] | H3K56 acetylation level (H3K56ac): increased
7 | 42% | 46% | 32% | Cc1ncsc1-c1ccc(CNC(=O)[C@@H]2C[C@@H](O)CN2C(=O)[C@@H](NC(=O)COCCCCCCOCC(=O)Nc2ccc(C(=O)Nc3ccccc3N)cc2)C(C)(C)C)cc1 [PROTAC12, (2S,4R)-1-((S)-2-(2-((6-(2-((4-((2-aminophenyl)carbamoyl)phenyl)amino)-2-oxoethoxy)hexyl)oxy)acetamido)-3,3-dimethylbutanoyl)-4-hydroxy-N-(4-(4-methylthiazol-5-yl)benzyl)pyrrolidine-2-carboxamide] | IC50 (MiDAC): 5.15 µM; IC50 (CoREST): 7.17 µM; IC50 (NuRD): 8.13 µM
8 | – | – | – | Nc1ccccc1NC(=O)c1ccc(NC(=O)CCCCCCCCCCCNC(=O)COc2cccc3c2C(=O)N(C2CCC(=O)NC2=O)C3=O)cc1 (centres unmarked) [PROTAC2, N-(2-aminophenyl)-4-(12-(2-((2-(2,6-dioxopiperidin-3-yl)-1,3-dioxoisoindolin-4-yl)oxy)acetamido)dodecanamido)benzamide] | H3K56 acetylation level (H3K56ac): increase in acetylation to similar levels
9 | 61% | 49% | 38% | CC(=O)N[C@H](C(=O)N1C[C@H](O)C[C@H]1C(=O)NCc1ccc(-c2scnc2C)cc1OCCCCCCCCCCCC(=O)Nc1ccc(C(=O)Nc2ccccc2N)cc1)C(C)(C)C [PROTAC35, (2S,4R)-1-((S)-2-acetamido-3,3-dimethylbutanoyl)-N-(2-((12-((4-((2-aminophenyl)carbamoyl)phenyl)amino)-12-oxododecyl)oxy)-4-(4-methylthiazol-5-yl)benzyl)-4-hydroxypyrrolidine-2-carboxamide] | –
10 | 32% | – | 32% | Cc1ncsc1-c1ccc(CNC(=O)[C@@H]2C[C@@H](O)CN2C(=O)[C@@H](NC(=O)COCCOCCOCC(=O)Nc2ccc(C(=O)Nc3cc(-c4cccs4)ccc3N)cc2)C(C)(C)C)cc1 [PROTAC22, (2S,4R)-1-((S)-14-((4-((2-amino-5-(thiophen-2-yl)phenyl)carbamoyl)phenyl)amino)-2-(tert-butyl)-4,14-dioxo-6,9,12-trioxa-3-azatetradecanoyl)-4-hydroxy-N-(4-(4-methylthiazol-5-yl)benzyl)pyrrolidine-2-carboxamide] | HDAC 2 Degrader (% Degradation) (HDAC2): No
11 | 38% | 16% | 37% | CN[C@@H](C)C(=O)N[C@H](C(=O)N1CCC[C@H]1c1nc(C(=O)c2cccc(OCCCCCCCCCCCC(=O)Nc3ccc(C(=O)Nc4ccccc4N)cc3)c2)cs1)C1CCCCC1 [PROTAC37, N-(2-aminophenyl)-4-(12-(3-(2-((S)-1-((S)-2-cyclohexyl-2-((S)-2-(methylamino)propanamido)acetyl)pyrrolidin-2-yl)thiazole-4-carbonyl)phenoxy)dodecanamido)benzamide] | –

Row | SMILES | Dmax (HDAC1) | Dmax (HDAC2) | Dmax (HDAC3) | other results
12 | Cc1ncsc1-c1ccc(CNC(=O)[C@@H]2C[C@@H](O)CN2C(=O)[C@@H](NC(=O)CCCCCCCn2cc(COC(=O)NCc3ccc(C(=O)Nc4ccccc4N)cc3)nn2)C(C)(C)C)cc1 [PROTAC29, (1-(8-(((S)-1-((2S,4R)-4-hydroxy-2-((4-(4-methylthiazol-5-yl)benzyl)carbamoyl)pyrrolidin-1-yl)-3,3-dimethyl-1-oxobutan-2-yl)amino)-8-oxooctyl)-1H-1,2,3-triazol-4-yl)methyl(4-((2-aminophenyl)carbamoyl)benzyl)carbamate] | 39% | 23% | 64% | –
13 | CN[C@@H](C)C(=O)N[C@H](C(=O)N1C[C@@H](NC(=O)CCCCCCCCCCC(=O)Nc2ccc(C(=O)Nc3ccccc3N)cc2)C[C@H]1C(=O)N[C@@H]1CCCc2ccccc21)C1CCCCC1 [PROTAC26, N^1-(4-((2-aminophenyl)carbamoyl)phenyl)-N^12-((3S,5S)-1-((S)-2-cyclohexyl-2-((S)-2-(methylamino)propanamido)acetyl)-5-(((R)-1,2,3,4-tetrahydronaphthalen-1-yl)carbamoyl)pyrrolidin-3-yl) dodecanediamide] | 88% | 58% | 88% | –
